pIC50: −log10 of the molar value. “And” between values parts separate entries of the source, which are not always exact repeats. Equal entries are not always repeated.

We go through 4 molecules from US7125878B2, “Substituted pyrroline kinase inhibitors” (Janssen Pharmaceutica, priority 2002, dated 2006).

Experiment [1] deals with PKC-βII (Homo sapiens, UniProt P05771). Nature of the experiment: Protein Kinase C Histone-Based Assay, isozyme β-II. In kind it is biochemical. Conditions: for pIC50: histone III substrate.
Procedure: (§1) Compounds were evaluated for PKC isozyme selectivity using histone III as the substrate. […] 100 μg/mL phosphatidylserine, 20 μg/mL diacylglycerol, 30 μM ATP, 1 μCi [^33P]ATP and 200 μg/mL histone III. The reaction was incubated for 10 min at 30° C. Reactions were terminated by TCA precipitation and spotting on Whatman P81 filters. Filters were washed in 75 mM phosphoric acid and the radioactivity quantified by liquid scintillation counting.
Experiment [2] has as its target PKC-γ (Homo sapiens, UniProt P05129). Nature of the experiment: Protein Kinase C Histone-Based Assay, isozyme γ. Conditions: for inhibition at 10 µM: read-out: PKC-γ % inhibition.
Procedure: as §1
Experiment [3] concerns the target PKC-α (Homo sapiens, UniProt P17252). Nature of the experiment: Protein Kinase C Histone-Based Assay, isozyme α. Conditions: for inhibition at 10 µM: read-out: PKC-α % inhibition.
Procedure: as §1
For experiment [4], the target named is T1, recombinant rabbit GSK-3β protein (Oryctolagus cuniculus, UniProt G1T8E2).
T1 construct: purchased New England Biolabs
Nature of the experiment: Glycogen Synthase Kinase-3 Assay (33P phosphorylation of PPI-2). Type of experiment: biochemical. To be noted: for pIC50: two numbers = data obtained on different days. On the procedure: Glycogen Synthase Kinase-3 Assay
Compounds were tested for the ability to inhibit recombinant rabbit GSK-3β protein using the following protocol. The test compound was added to a reaction mixture containing Protein Phosphatase Inhibitor-2 (PPI-2) (Calbiochem) (45 ng), rabbit GSK-3β protein (New England Biolabs) (0.75 units) and ^33P-ATP (1 μCi) in 50 mM Tris-HCl (pH 8.0), 10 mM MgCl2, 0.1% BSA, 1 mM DTT and 100 μM Sodium Vanadate. The mixture was reacted for 90 minutes at 30° C. to allow phosphorylation of the PPI-2 protein and then the protein in the reaction was precipitated using 10% TCA. The precipitated protein was collected on filter plates (MultiScreen-DV/Millipore), which were subsequently washed. Finally, the radioactivity was quantified using a TopCount Scintillation Counter (Packard). […] Staurosporine or Valproate, known inhibitors of GSK-3β, were used as a positive control for screening.

PKC-βII, sequence (P05771 1-673 isoform P05771-2): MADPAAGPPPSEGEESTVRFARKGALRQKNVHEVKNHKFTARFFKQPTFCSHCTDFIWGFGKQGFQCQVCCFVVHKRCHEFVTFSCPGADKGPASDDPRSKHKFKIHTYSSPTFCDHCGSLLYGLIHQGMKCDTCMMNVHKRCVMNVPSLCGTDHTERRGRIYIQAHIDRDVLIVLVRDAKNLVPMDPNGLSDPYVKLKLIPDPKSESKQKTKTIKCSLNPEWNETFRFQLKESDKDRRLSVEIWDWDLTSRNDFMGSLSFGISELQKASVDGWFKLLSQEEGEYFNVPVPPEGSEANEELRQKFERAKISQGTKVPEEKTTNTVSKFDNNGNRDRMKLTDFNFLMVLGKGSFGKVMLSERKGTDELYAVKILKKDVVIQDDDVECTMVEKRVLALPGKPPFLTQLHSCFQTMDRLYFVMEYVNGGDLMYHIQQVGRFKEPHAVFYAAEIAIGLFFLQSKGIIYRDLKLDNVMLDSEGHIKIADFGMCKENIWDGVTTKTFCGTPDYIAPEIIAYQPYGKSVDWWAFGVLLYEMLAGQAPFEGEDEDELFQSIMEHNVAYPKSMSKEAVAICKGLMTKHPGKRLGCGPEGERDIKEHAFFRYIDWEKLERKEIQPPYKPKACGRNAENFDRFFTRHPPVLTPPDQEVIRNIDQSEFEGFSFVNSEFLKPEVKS
T1 sequence (G1T8E2 1-432): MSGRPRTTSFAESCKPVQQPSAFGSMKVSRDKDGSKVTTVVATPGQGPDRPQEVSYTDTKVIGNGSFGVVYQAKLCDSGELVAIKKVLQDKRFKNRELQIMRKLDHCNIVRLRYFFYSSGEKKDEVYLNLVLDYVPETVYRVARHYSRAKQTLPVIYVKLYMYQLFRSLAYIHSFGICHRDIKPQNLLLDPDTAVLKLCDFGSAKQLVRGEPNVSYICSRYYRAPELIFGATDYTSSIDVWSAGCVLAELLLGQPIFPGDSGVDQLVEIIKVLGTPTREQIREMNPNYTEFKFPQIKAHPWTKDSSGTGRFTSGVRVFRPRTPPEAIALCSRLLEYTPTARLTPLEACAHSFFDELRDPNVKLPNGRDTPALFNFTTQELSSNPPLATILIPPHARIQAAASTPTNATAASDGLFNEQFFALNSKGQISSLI

With `O=C1NC(=O)C(c2nn(CCCO)c3ccccc23)=C1c1cn(-c2ccc3ccccc3c2)c2ncccc12` [Cpd 21, 3-[1-(3-hydroxypropyl)-1H-indazol-3-yl]-4-[1-(2-naphthalenyl)-1H-pyrrolo[2,3-b]pyridin-3-yl]-1H-pyrrole-2,5-dione], the negative logarithm of the IC50 (pIC50) in experiment [1] was 7.44; in experiment [2] it was 6.07; in experiment [3], 5.84. Besides, the inhibition at 1 µM in experiment [4] (@1 μM, two numbers = different days) was determined as 44%.
Turning to `COC(=O)NCCCn1cc(C2=C(c3ccccc3OC)C(=O)NC2=O)c2cccnc21` [Cpd 35, [3-[3-[2,5-dihydro-4-(2-methoxyphenyl)-2,5-dioxo-1H-pyrrol-3-yl]-1H-pyrrolo[2,3-b]pyridin-1-yl]propyl]-carbamic acid methyl ester], the inhibition at 1 µM in experiment [1] was determined as 35%. Moreover, the inhibition at 10 µM in experiment [2] stood at 35%; in experiment [3] it was 31%. For the same molecule, the pIC50 in experiment [4] was 8.10 and 7.96.
With `COC(=O)NCCCn1cc(C2=C(c3ccccc3C(F)(F)F)C(=O)NC2=O)c2cccnc21` [Cpd 37, [3-[3-[2,5-dihydro-4-(2-trifluoromethylphenyl)-2,5-dioxo-1H-pyrrol-3-yl]-1H-pyrrolo[2,3-b]pyridin-1-yl]propyl]-carbamic acid methyl ester], the pIC50 was 6.47 in experiment [1]; 5.32 in experiment [2]; 5.28 in experiment [3]; 7.85 and 7.72 in experiment [4].
Molecule `COc1ccccc1C1=C(c2cn(CCCNC=O)c3ncccc23)C(=O)NC1=O` [Cpd 78, N-[3-[3-[2,5-dihydro-4-(2-methoxyphenyl)-2,5-dioxo-1H-pyrrol-3-yl]-1H-pyrrolo[2,3-b]pyridin-1-yl]propyl]-formamide] came in with an inhibition at 1 µM in experiment [1] of 21%. Further, the inhibition at 10 µM in experiment [2] amounted to 48%; in experiment [3] it was 33%. In experiment [4], the pIC50 is 8.15 and 8.05.
